Assay [1] in a line: DPPH radical scavenging assay. The settings on record: 30 min, 517 nm, mean ± SEM (n = 3). On the procedure: Each sample's stock solution was diluted to final concentrations of 1000–0.4889 μg/mL in MeOH. A total of 1 mL of a 0.3 mM DPPH methanolic solution was added to 2.5 mL of sample solution of different concentrations and allowed to react at room temperature. After 30 min, the absorbance (Abs) values were measured at 517 nm with a microplate reader (Tecan NanoQuant Infinite M200, Switzerland) and converted into the percentage antioxidant activity using the following equation described previously: (1) % antioxidant activity=100−Abssample−Abssample blank/Abscontrol−Abscontrol blank×100. MeOH + compound solution was used as a blank, while DPPH solution plus MeOH was used as a negative control. The positive controls were DPPH solution plus 1 mM ascorbic acid. The IC50 values were calculated by linear regression of plots. The average percent of scavenging capacity was taken from three replicates.
For orientation: The DPPH test is a chemical assay of radical scavenging.

In assay [2] the target is T1, xanthine oxidase from buttermilk (Bos taurus, UniProt P80457).
T1 construct: 0.3 U/mL enzymes (xanthine oxidase from buttermilk); purchased Sigma-Aldrich (Singapore); host or cells: buttermilk (natural source)
T1 sequence (P80457 whole entry): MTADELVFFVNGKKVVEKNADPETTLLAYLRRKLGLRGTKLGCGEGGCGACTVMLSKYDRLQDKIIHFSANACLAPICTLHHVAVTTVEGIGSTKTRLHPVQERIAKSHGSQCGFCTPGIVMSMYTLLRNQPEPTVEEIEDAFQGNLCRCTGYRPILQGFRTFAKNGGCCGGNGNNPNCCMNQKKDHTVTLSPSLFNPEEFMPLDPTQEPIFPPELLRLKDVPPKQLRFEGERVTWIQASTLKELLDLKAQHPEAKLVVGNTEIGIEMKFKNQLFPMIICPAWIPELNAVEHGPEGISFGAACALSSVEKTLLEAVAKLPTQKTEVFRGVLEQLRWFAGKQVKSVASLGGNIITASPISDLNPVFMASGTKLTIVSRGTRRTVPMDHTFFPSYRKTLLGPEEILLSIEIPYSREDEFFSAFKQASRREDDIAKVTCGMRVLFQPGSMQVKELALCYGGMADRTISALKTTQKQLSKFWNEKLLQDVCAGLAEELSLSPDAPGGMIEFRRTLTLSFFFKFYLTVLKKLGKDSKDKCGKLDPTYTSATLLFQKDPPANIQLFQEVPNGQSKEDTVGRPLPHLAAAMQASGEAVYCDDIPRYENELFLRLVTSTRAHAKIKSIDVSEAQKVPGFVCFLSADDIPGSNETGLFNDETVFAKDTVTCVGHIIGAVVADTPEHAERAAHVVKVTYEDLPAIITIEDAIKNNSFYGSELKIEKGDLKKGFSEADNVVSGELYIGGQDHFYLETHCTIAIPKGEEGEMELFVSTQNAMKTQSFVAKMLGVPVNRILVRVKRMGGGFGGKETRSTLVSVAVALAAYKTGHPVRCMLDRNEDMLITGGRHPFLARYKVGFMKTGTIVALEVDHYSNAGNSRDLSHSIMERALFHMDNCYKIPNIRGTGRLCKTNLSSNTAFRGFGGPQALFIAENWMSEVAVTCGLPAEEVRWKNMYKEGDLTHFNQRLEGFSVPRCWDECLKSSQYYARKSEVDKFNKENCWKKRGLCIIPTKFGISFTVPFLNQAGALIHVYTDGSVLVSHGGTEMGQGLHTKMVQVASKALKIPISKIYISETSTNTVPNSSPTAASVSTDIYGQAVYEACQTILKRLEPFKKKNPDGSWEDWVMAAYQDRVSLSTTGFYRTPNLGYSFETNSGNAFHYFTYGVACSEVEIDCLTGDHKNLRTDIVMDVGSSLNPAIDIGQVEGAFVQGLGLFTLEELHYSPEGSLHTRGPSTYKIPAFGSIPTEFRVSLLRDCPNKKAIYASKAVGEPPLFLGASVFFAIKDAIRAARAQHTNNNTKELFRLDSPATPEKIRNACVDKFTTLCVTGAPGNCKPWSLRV
In words: Xanthine oxidase inhibitory assay (XOI). Format: biochemical. The note with it: for xanthine oxidase inhibitory effect (in words): discussion; for IC50: xanthine oxidase inhibition, 295 nm, mean ± SEM (n = 3), NA: not active. Here is the method: XO catalyzes the oxidation of hypoxanthine to xanthine and subsequently to uric acid. The inhibition of XO reduces both vascular oxidative stress and circulating levels of uric acid. This assay is based on the fact that the superoxide anions are generated by the xanthine. The xanthine oxidase inhibitory activity was measured spectrophotometrically (Tecan NanoQuant Infinite M200, Switzerland) at 295 nm under aerobic condition with slight modification. The reaction mixture contained 50 mM phosphate buffer (pH 7.5), 0.15 mM xanthine (substrate), and 0.3 U/mL enzymes (xanthine oxidase from buttermilk). Samples were prepared by dissolving 1 mg in 5% DMSO in MeOH which gives sample concentration of 144.0 μg/mL in assay. […] The absorption increment at 295 nm indicates the formation of […] of uric acid/min at 25°C. […] All determination was done in triplicate and half maximal concentration (IC50) values were calculated from the percentage of inhibition. XO inhibition activity was expressed as the percentage inhibition of XO as follows:(3) % of inhibition=AbsA−B−C−D/AbsA−B×100, where A is the negative control with B as the blank of A which is without the enzyme and the sample while C is the activity of the sample with enzyme with D as the blank of the sample without enzyme.

A short description of assay [3]: Ferric reducing antioxidant power (FRAP). The settings on record: for FRAP (AAE μg): ascorbic acid equivalent, mean ± SEM (n = 3), Table 2. Here is the method:
This assay was based on the reduction of the ferric tripyridyltriazine (Fe III-TPTZ) complex to the ferrous ion (Fe II) at a low pH forming an intense blue color. In the FRAP assay, compounds that are rich in antioxidant effect exert their action by breaking the free radical chain by donating a hydrogen atom. Briefly, ferric reducing antioxidant power (FRAP) reagent (2.5 mL of a 10 mM TPTZ solution in 40 mM HCl, 2.5 mL of 20 mM FeCl3, and 25 mL of 0.1 M acetate buffer pH 3.6) was prepared and incubated for 10 min at 37°C. Then 20 μL of each compound and ascorbic acid (standard) and 40 μL of FRAP reagent were added to 140 μL of distilled water in a 96-well plate producing a blue-colored solution. The solutions were kept at room temperature for 20 min in the dark and then measured at 593 nm with a microplate reader (Tecan, Switzerland) using a reagent blank composed of 40 μL of FRAP reagents in 200 μL of distilled water. A calibration curve was prepared with a serial dilution of ascorbic acid (standard). The total antioxidant capacity was calculated by interpolating the measured absorbance of the calibration curve and expressed as ascorbic acid equivalents. The results were corrected for dilution and expressed as AAE μg of ascorbic acid/g.

A short description of assay [4]: Rapid screening of radical scavenging activity by dot blot assay (DPPH staining). The note with it: silica sheet stained with DPPH in MeOH, dilutions from 1000 μg/mL. Here is the method: An aliquot (20 μL) of each dilution of each group was carefully loaded on a […] TLC plate and allowed to dry for 10 min. Drops of each sample were loaded in the order of decreased concentration along the 16 columns. The staining of the silica plate was based on the procedure of Soler-Rivas et al.. […] The intensity of the yellow color depends upon the amount and nature of radical scavenger present in the flavonoids.

A short description of assay [5]: ABTS+ radical scavenging assay. The settings on record: 734 nm, mean ± SEM (n = 3). Here is the method:
An improved ABTS^+ radical decolorization assay was carried out involving direct production of the blue/green ABTS^+ chromophore through the reaction between ABTS and potassium persulfate. Addition of antioxidant to the preformed radical cation reduces it to ABTS to an extent on a time scale depending on the antioxidant activity, the concentration of the antioxidant, and the duration of the reaction. 1 ml ABTS was dissolved in water to make 7 mM concentration of the resultant solution. […] The resultant reaction mixture was allowed to stand in the dark at room temperature for 12–16 h before being used. The ABTS^+ radical solution was diluted with MeOH to an absorbance of 0.7 (±0.02) at 734 nm. Then, 100 μl of sample at various concentrations (1000–0.4889 μg/mL) was mixed with 100 μL of diluted ABTS^+ radical. Each concentration was analyzed in triplicate and the percentage decrease of absorbance at 734 nm with a microplate reader (Tecan NanoQuant Infinite M200, Switzerland) was calculated for each point and the antioxidant capacity of the tested compounds was expressed as percent inhibition (%). The radical scavenging activity of the compounds was measured according to the following equation [29]:(2) % inhibition=Acontrol−Asample/Acontrol×100. IC50 values were calculated by linear regression of plots, and the average percent of scavenging capacity was taken from three replicates. Trolox was used as a standard in comparison for the determination of the antioxidant activity of the flavonoids.

The term IC50 denotes the point on the concentration scale where inhibition reaches its midpoint. Lower therefore signals higher potency. In the case of `COc1cc(O)c2c(=O)cc(-c3ccccc3)oc2c1` [Techtochrysin, 5-Hydroxy-7-methoxyflavone], in assay [1], the “IC50 DPPH” value was >100^B µg/ml. In addition, in assay [2], the “xanthine oxidase inhibitory effect (in words)” value is “low xanthine oxidase inhibitory activity” and the IC50 was more than 373 µM. In assay [3], the FRAP antioxidant capacity is given as 11.49 ± 0.32 AAE μg of ascorbic acid/g and the “FRAP (AAE μg)” value is reported as 11.49 ± 0.32^F AAE μg. Further, the “radical scavenging activity by dot blot (intensity of yellow spots)” value in assay [4] is recorded as “intermediate radical scavenging activity”. In assay [5], the “IC50 ABTS+” value is on record as 45.59 ± 4.75^E µg/ml.

On to `O=c1cc(-c2ccc(O)c(O)c2)oc2c(O)c(O)cc(O)c12` [Hypolaetin, 3′,4′,5,7,8-Pentahydroxyflavone], for which the “IC50 DPPH” value in assay [1] is 3.69 ± 0.11^Ha µg/ml. For the same compound, in assay [2], the “xanthine oxidase inhibitory effect (in words)” value was “low xanthine oxidase inhibitory activity” and the IC50 is more than 331 µM. Moreover, the “FRAP (AAE μg)” value in assay [3] is 177.37 ± 1.82^B AAE μg. Moreover, the “radical scavenging activity by dot blot (intensity of yellow spots)” value in assay [4] was “strong radical scavenging activity”. In addition, the “IC50 ABTS+” value in assay [5] is listed as 0.80 ± 0.03^FG µg/ml.

These data come from PMC5727842, “Antioxidant and Antidiabetic Effects of Flavonoids: A Structure-Activity Relationship Based Study” (BioMed Research International, 2017).
